# Key:
# [1] = test system: HEK293 cells; test: NAD+ measurement in HEK293 cells (NAD+ cycling assay); conditions: for cellular NAD concentration: 6 hours of incubation, 50-500 μM
# Procedure: Cell number were counted using hemocytometer.
# After 6 hours of incubation, cells were harvested with Trypsin. A cell count was obtained from each cell suspension by hemacytometer. The cell pellets were used for NAD^+ measurement.
# Water-only and nicotinamide riboside (NR) control treatments were run.
# HEK cells were plated in 6-well plates until 90% confluent. […] After 6 hours of incubation, cells were harvested with Trypsin. A cell count was obtained from each cell suspension by hemacytometer. The cell pellets were used for NAD^+ measurement.
# [2] = test system: INS1 cells; test: Glucose-induced insulin secretion test in INS1 cells with hydrogen peroxide challenge; format: cell-based; conditions: 1 mM, 100 μM hydrogen peroxide, 15 mmol/l glucose
# Procedure: To induce insulin secretion, INS1 cells were seeded in 6-well plate. The cells were accommodated to low glucose RPMI-1640 media with 5 mmol/1 D-glucose overnight. Insulin secretion was assayed in HEPES balanced salt solution (HESS) (114 mmol/1 NaCl, 4.7 mmol/1 KCl, 1.2 mmol/1 KH2PO4, 1.16 mmol/1 MgSO4, 20 mmol/1 HEPES, 2.5 mmol/1 CaCl2, 25.5 mmol/1 NaHCO3, and 0.2% bovine serum albumin [essentially fatty acid free], pH 7.2). Cells wore washed in 1 ml HESS with 3 mmol/1 glucose followed by a 2 hr preincubation in 2 ml of the same buffer. Insulin secretion was then measured by incubating 1 hr 1 ml of HESS containing the 3 mmol/1 or 15 mmol/1 glucose concentration. The media was then collected for insulin analysis using RayBio™ Rat Insulin ELISA kit according to manufacturer's manual. In hydrogen peroxide challenge, 100 μM hydrogen peroxide were added to media together with 3 mmol/1 glucose containing HESS and incubated for 2 hr before switch to 15 mmol/l glucose containing HBSS for insulin secretion.
# [3] = HEK cells, 50 μM, 6 hours, percentages of average NAD^+ as compared to control
Compound,"Average NAD^+ (pmoles/10^6 cells) [1, 3] [%]",cellular NAD concentration ([1]; HEK cells),further results
"CCCCCCCCOC(=O)C1=CN([C@@H]2O[C@H](CO)[C@H](O)[C@@H]2O)C=CC1 [Oct NaR—H, octyl-1-((2R,3S,4R,5R)-3,4-dihydroxy-5-(hydroxymethyl)tetrahydrofuran-2-yl)-1,4-dihydropyridine-3-carboxylate]",112,–,–
"CCCOC(=O)C1=CN([C@@H]2O[C@H](CO)[C@H](O)[C@@H]2O)C=CC1 [Pr NaR-H, propyl-1-((2R,3S,4R,5R)-3,4-dihydroxy-5-(hydroxymethyl)tetrahydrofuran-2-yl)-1,4-dihydropyridine-3-carboxylate]",–,increased,–
"CCOC(=O)C1=CN([C@@H]2O[C@H](CO)[C@H](O)[C@@H]2O)C=CC1 [Et NaR-H, ethyl-1-((2R,3S,4R,5R)-3,4-dihydroxy-5-(hydroxymethyl)tetrahydrofuran-2-yl)-1,4-dihydropyridine-3-carboxylate]",–,increased,–
"CCCCOC(=O)C1=CN([C@@H]2O[C@H](CO)[C@H](O)[C@@H]2O)C=CC1 [Bu NaR—H, butyl-1-((2R,3S,4R,5R)-3,4-dihydroxy-5-(hydroxymethyl)tetrahydrofuran-2-yl)-1,4-dihydropyridine-3-carboxylate]",124,–,–
"NC(=O)c1ccc[n+]([C@@H]2O[C@H](CO)[C@@H](O)[C@H]2O)c1 [NR, nicotinamide riboside]",–,–,"insulin secretion level under hydrogen peroxide [2]: restored the insulin secretion level back to a similar extent as untreated control; increase in NAD^+ ([1]; HEK293, 1000 mM as printed (1 mM elsewhere in the source)): 148%; Average NAD^+ (pmoles/10^6 cells) ([1]; HEK293, 1000 mM as printed in table (1 mM elsewhere in the source), compared to control): 148%"
"CCCCCCCOC(=O)C1=CN([C@@H]2O[C@H](CO)[C@H](O)[C@@H]2O)C=CC1 [Hep NaR—H, heptyl-1-((2R,3S,4R,5R)-3,4-dihydroxy-5-(hydroxymethyl)tetrahydrofuran-2-yl)-1,4-dihydropyridine-3-carboxylate]",124,–,–

# Source: patent US11926644B2, “Syntheses, activities, and methods of use of dihydronicotinamide riboside derivatives” (Cornell University, priority 2015, dated 2024)
